This assay addresses T1, Human ATX protein (Homo sapiens, UniProt Q13822).
T1 construct: made in house
The experiment in a line: ATX biochemical FRET assay with FS-3 substrate. Particulars: FS-3 substrate 2 μM, ATX 1.0 μg/mL, 30 min preincubation, 2 hours at room temperature. An excerpt: ATX (Autotaxin) is a 125 KDa glycoprotein with lysophospholipase D (LPLD) activity that generates the bioactive lipid lysophosphatidic acid (LPA) from lysophosphatidylcholine (LPC). The ATX biochemical assay utilizes a FRET (fluorescence resonance energy transfer) technology platform. The fluorescence signal of FRET substrate FS-3 is quenched due to intra-molecular FRET of a fluorophore to a non-fluorescing quencher (Ferguson, C. G., et al., Org Lett. 2006 May 11; 8(10): 2023-2026, which is incorporated by reference in its entirety). ATX catalyzes the hydrolysis of the substrate which separates the dabsyl quencher from the fluorescein reporter, which becomes fluorescent. The reaction is monitored by a SpectraMax M5 (Molecular Devices, Sunnyvale, Calif.) with at excitation wavelength 485 nm and emission wavelength […].
Fatty acid free-BSA (Sigma A8806): 10 mg/mL in H2O, stored at 4° C.
2×ATX assay buffer: 100 mM Tris, 280 mM NaCl, 10 mM KCl, 2 mM CaCl2, 2 mM MgCl2, pH 7.4.
Human ATX protein: expressed and purified in house. Stored at −80° C.
Substrate FS-3 (Echelon, L-2000): 100 μg in 77.74.L H2O (1 mM stock), stored at −20° C.
384-well flat bottom plates—Corning #3575.
Compound dilution—All compounds were provided at 10 mM in 100% DMSO. In the first well, 2 μL of 10 mM compound was added to 78 μL of DMSO (1:40 dilution). In subsequent wells 3-fold dilution (total 10 dilutions) were performed.
1×ATX assay buffer was made up with a final concentration of 1 mg/mL fatty acid free-BSA using 2×ATX assay buffer, 10 mg/ml fatty acid free-BSA and ddH2O.
ATX protein was diluted with 1×ATX assay buffer to a concentration of 1.32 μg/mL (1.32×). 38 μL was added per well to the assay plate. The final concentration of ATX in the reaction as 1.0 μg/mL.
2 μL per well of compounds was transferred to provide the desired concentration. The plate was centrifuged, then incubated at room temperature for 30 minutes on the shaker.
FS-3 was diluted with 1×ATX assay buffer to a concentration of FS-3 of 10 μM (5×). Then, 10 μL was added per well to the assay plate. The final concentration of FS-3 in the reaction was 2 μM. The plate was centrifuged. The plate was kept shaking at room temperature for 2 hours. Because FS-3 substrate is light sensitive, plates were kept covered and protected from light.
Fluorescence was measured using SpectraMax M5 (excitation at 485 nm/emission at 538 nm, top read).

pIC50: −log10 of the molar value.

Compound `CC(C(=O)O)[C@H]1CCCN(Cc2ccc3c(C(F)(F)F)c(O[C@H]4CC[C@@H](C(F)(F)F)CC4)ccc3c2)C1` (mixture of isomers) [Example 102, (S)-2-((R)-1-((5-(trifluoromethyl)-6-((cis-4-(trifluoromethyl)cyclohexyl)oxy)naphthalen-2-yl)methyl)piperidin-3-yl)propanoic acid] gave a pIC50 of at least 6.60.
Take `O=C(O)CC1CCCCN1Cc1ccc2c(C(F)(F)F)c(O[C@H]3CC[C@@H](C(F)(F)F)CC3)ccc2c1` (relative stereo) [Example 27, 2-(1-((5-(trifluoromethyl)-6-((cis)-4-(trifluoromethyl)cyclohexyloxy)naphthalen-2-yl)methyl)piperidin-2-yl)acetic acid]: the negative logarithm of the IC50 (pIC50) was at least 6.60.
Turning to `O=C(O)C1CCCCN1Cc1ccc2c(C(F)(F)F)c(O[C@H]3CC[C@@H](C(F)(F)F)CC3)ccc2c1` (relative stereo) [Example 29, 1-((5-(trifluoromethyl)-6-((cis)-4-(trifluoromethyl)cyclohexyloxy)naphthalen-2-yl)methyl)piperidine-2-carboxylic acid], the negative-log IC50 (pIC50) is at least 6.30.
`O=C(O)C1CCCN(C(=O)c2ccc3c(C(F)(F)F)c(O[C@H]4CC[C@@H](C(F)(F)F)CC4)ccc3c2)CC1` (relative stereo) [Example 31, 1-(5-(trifluoromethyl)-6-((cis)-4-(trifluoromethyl)cyclohexyloxy)-2-naphthoyl)azepane-4-carboxylic acid] showed a pIC50 of at least 6.30.
On to `O=C(O)CC1CN(Cc2ccc3c(C(F)F)c(O[C@H]4CC[C@@H](C(F)(F)F)CC4)ccc3c2)CCO1` (relative stereo) [Example 32, 2-(4-((5-(difluoromethyl)-6-((cis)-4-(trifluoromethyl)cyclohexyloxy)naphthalen-2-yl)methyl)morpholin-2-yl)acetic acid], for which the negative-log IC50 (pIC50) is at least 6.30.
As to `CC1(C)C(NCc2ccc3c(C(F)F)c(O[C@H]4CC[C@@H](C(F)(F)F)CC4)ccc3c2)CC1C(=O)O` (relative stereo) [Example 33, 3-((5-(difluoromethyl)-6-((cis)-4-(trifluoromethyl)cyclohexyloxy)naphthalen-2-yl)methylamino)-2,2-dimethylcyclobutanecarboxylic acid], the pIC50 is at least 6.30.
In turn, `O=C(O)C1CN(Cc2ccc3c(C(F)(F)F)c(O[C@H]4CC[C@@H](C(F)(F)F)CC4)ccc3c2)CCC1O` (relative stereo) [Example 35, 4-hydroxy-1-((5-(trifluoromethyl)-6-((cis)-4-(trifluoromethyl)cyclohexyloxy)naphthalen-2-yl)methyl)piperidine-3-carboxylic acid] gave a pIC50 of at least 6.30.
`CCC(NC1CC(C(=O)O)C1(C)C)c1ccc2c(C(F)(F)F)c(O[C@H]3CC[C@@H](C)CC3)ccc2c1` (relative stereo) [Example 36, 2,2-dimethyl-3-(1-(6-((cis)-4-methylcyclohexyloxy)-5-(trifluoromethyl)naphthalen-2-yl)propylamino)cyclobutanecarboxylic acid] showed a pIC50 of at least 6.30.
Then `CC(C)C(NC1CC(C(=O)O)C1(C)C)c1ccc2c(C(F)(F)F)c(O[C@H]3CC[C@@H](C(F)(F)F)CC3)ccc2c1` (relative stereo) [Example 39, 2,2-dimethyl-3-(2-methyl-1-(5-(trifluoromethyl)-6-((cis)-4-(trifluoromethyl)cyclohexyloxy)naphthalen-2-yl)propylamino)cyclobutanecarboxylic acid], with at least 6.60.
Consider `CC(C)CC(NC1CC(C(=O)O)C1(C)C)c1ccc2c(C(F)(F)F)c(O[C@H]3CC[C@@H](C(F)(F)F)CC3)ccc2c1` (relative stereo) [Example 40, 2,2-dimethyl-3-(3-methyl-1-(5-(trifluoromethyl)-6-((cis)-4-(trifluoromethyl)cyclohexyloxy)naphthalen-2-yl)butylamino)cyclobutanecarboxylic acid], for which the pIC50 was at least 6.60.
For `CC(NCc1ccc2c(C(F)(F)F)c(O[C@H]3CC[C@@H](C(F)(F)F)CC3)ccc2c1)C1CCC(C(=O)O)CC1` (relative stereo) [Example 41, 4-(1-((5-(trifluoromethyl)-6-((cis)-4-(trifluoromethyl)cyclohexyloxy)naphthalen-2-yl)methylamino)ethyl)cyclohexanecarboxylic acid], the pIC50 was at least 6.30.
As to `CC(c1ccc2c(C(F)(F)F)c(O[C@H]3CC[C@@H](C)CC3)ccc2c1)N1CCC(C(=O)O)CC1` (relative stereo) [Example 45, 1-(1-(5-trifluoromethyl-6-(cis-4-methylcyclohexyloxy)naphthalene-2-yl)ethyl)-piperidine-4-carboxylic acid], the pIC50 was at least 6.30.
In the case of `C[C@H]1CC[C@@H](Oc2ccc3cc(CN4CCC(CC(=O)O)C4)ccc3c2C(F)(F)F)CC1` (relative stereo) [Example 46, 1-((5-trifluoromethyl-6-(cis-4-methylcyclohexyloxy)naphthalene-2-yl)methyl)-pyrrolidine-3-acetic acid], the negative-log IC50 (pIC50) was at least 6.30.
Take `C[C@H]1CC[C@@H](Oc2ccc3cc(CN4CCCCC(C(=O)O)C4)ccc3c2C(F)(F)F)CC1` (relative stereo) [Example 48, 1-((5-trifluoromethyl-6-(cis-4-methylcyclohexyloxy)naphthalene-2-yl)methyl)-azepane-3-carboxylic acid]: the pIC50 was at least 6.30.
`CCC(c1ccc2c(C(F)(F)F)c(O[C@H]3CC[C@@H](C)CC3)ccc2c1)N1CCC(C(=O)O)CC1` (relative stereo) [Example 50, 1-(1-(6-((cis-4-Methylcyclohexyl)oxy)-5-(trifluoromethyl)naphthalen-2-yl)propyl)piperidine-4-carboxylic acid]: the negative-log IC50 (pIC50) is at least 6.30.
The compound `CC(c1ccc2c(C(F)F)c(O[C@H]3CC[C@@H](C)CC3)ccc2c1)N1CCC(C(=O)O)CC1` (relative stereo) [Example 55, 1-(1-(6-((cis-4-Methylcyclohexyl)oxy)-5-(difluoromethyl)naphthalen-2-yl)ethyl)piperidine-4-carboxylic acid] had a negative-log IC50 (pIC50) of at least 7.00.
Compound `CCC(c1ccc2c(C(F)F)c(O[C@H]3CC[C@@H](C)CC3)ccc2c1)N1CCC(C(=O)O)CC1` (relative stereo) [Example 58, 1-(1-(6-((cis-4-Methylcyclohexyl)oxy)-5-(difluoromethyl)naphthalen-2-yl)propyl)piperidine-4-carboxylic acid] gave a negative logarithm of the IC50 (pIC50) of at least 7.00.
In turn, `O=C(O)CC1CCN(Cc2ccc3c(C(F)(F)F)c(O[C@H]4CC[C@@H](C(F)(F)F)CC4)ccc3c2)C1` (relative stereo) [Example 64, 1-((5-(trifluoromethyl)-6-((cis-4-(trifluoromethyl)cyclohexyl)oxy)-naphthalen-2-yl)methyl)pyrrolidine-3-acetic acid] showed a negative-log IC50 (pIC50) of at least 6.60.
Take `O=C(O)C1CCC(NCc2ccc3c(C(F)(F)F)c(O[C@H]4CC[C@@H](C(F)(F)F)CC4)ccc3c2)C1` (relative stereo) [Example 66, 1-((5-(trifluoromethyl)-6-((cis-4-(trifluoromethyl)cyclohexyl)oxy)-naphthalen-2-yl)methyl)aminocyclopentane-3-carboxylic acid]: the pIC50 is at least 6.30.
`O=C(O)CC1CCCN(Cc2ccc3c(C(F)(F)F)c(O[C@H]4CC[C@@H](C(F)(F)F)CC4)ccc3c2)C1` (relative stereo) [Example 67, 1-((5-(trifluoromethyl)-6-((cis-4-(trifluoromethyl)cyclohexyl)oxy)-naphthalen-2-yl)methyl)piperidine-3-acetic acid] gave a pIC50 of at least 6.60.
The same measure for `CC1CN(Cc2ccc3c(C(F)(F)F)c(O[C@H]4CC[C@@H](C(F)(F)F)CC4)ccc3c2)CCC1C(=O)O` (relative stereo) [Example 74, 1-((5-(trifluoromethyl)-6-((cis-4-(trifluoromethyl)cyclohexyl)oxy)-naphthalen-2-yl)methyl)-3-methylpiperidine-4-carboxylic acid]: at least 6.30; for `O=C(O)C1CCCN(Cc2ccc3c(C(F)(F)F)c(O[C@H]4CC[C@@H](C(F)(F)F)CC4)ccc3c2)CC1` (relative stereo) [Example 76, 1-((5-(trifluoromethyl)-6-((cis-4-(trifluoromethyl)cyclohexyl)oxy)-naphthalen-2-yl)methyl)azepane-4-carboxylic acid]: at least 6.30.

As usually defined, the pIC50 is −log10 of the IC50, conventionally taken in molar units. High values mean a low IC50, low ones a high IC50.

Values taken from patent US9555050B2 (BIOGEN MA INC., priority 2012, dated 2017).
